The values that follow come from patent US11957687B2 (REGENERON PHARMACEUTICALS, INC., priority 2019, dated 2024).

The target of one experiment is HSD17B13 (Homo sapiens (Human), UniProt Q7Z5P4). In words: HSD17B13 enzymatic inhibition assay (150 nM or 50 nM HSD17B13). To be noted: 50 nM HSD17B13; read-out: Inhibition of 50 nM of HSD17B13 IC50. It is filed as biochemical.
Chain of HSD17B13 (Q7Z5P4 other isoform, or with tags, fused parts or gaps): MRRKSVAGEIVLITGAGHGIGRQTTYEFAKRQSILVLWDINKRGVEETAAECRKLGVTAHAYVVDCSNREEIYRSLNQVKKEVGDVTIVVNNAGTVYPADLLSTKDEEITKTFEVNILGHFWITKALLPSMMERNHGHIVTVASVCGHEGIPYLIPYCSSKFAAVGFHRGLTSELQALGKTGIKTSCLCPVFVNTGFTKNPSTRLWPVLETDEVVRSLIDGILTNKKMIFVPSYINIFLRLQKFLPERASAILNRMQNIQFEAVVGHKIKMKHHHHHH
Consider `O=C(NC1c2ccccc2C=Cc2ccccc21)c1ccc(C(F)(F)F)[nH]c1=O` [Compound 5A, N-(5H-dibenzo[a,d][7]annulen-5-yl)-2-oxo-6-(trifluoromethyl)-1,2-dihydropyridine-3-carboxamide], for which the IC50 – broadly, the concentration that inhibits the measured activity by half – is 1.52 µM.
Turning to `Nc1ccc(C(NC(=O)c2ccc(C(F)(F)F)[nH]c2=O)c2ccccc2)cc1` (centres unmarked) [Compound 6A, N-((4-aminophenyl)(phenyl)methyl)-2-oxo-6-(trifluoromethyl)-1,2-dihydropyridine-3-carboxamide], the half-maximal inhibitory concentration (IC50) was 5.15 µM.
In the case of `COc1ccccc1C(NC(=O)c1ccc(C(F)(F)F)[nH]c1=O)c1ccccc1` (centres unmarked) [Compound 8, N-((2-methoxyphenyl)(phenyl)methyl)-2-oxo-6-(trifluoromethyl)-1,2-dihydropyridine-3-carboxamide], the IC50 is 1.61 µM.
For the molecule `O=C(NC1c2ccc(OC(F)(F)F)cc2-c2cc(OC(F)(F)F)ccc21)c1ccc(C(F)(F)F)[nH]c1=O` [Compound 8A, N-(3,6-bis(trifluoromethoxy)-9H-fluoren-9-yl)-2-oxo-6-(trifluoromethyl)-1,2-dihydropyridine-3-carboxamide], the concentration for half-maximal inhibition (IC50) turned out to be 6.31 µM.
For the molecule `O=C(NC(c1ccccc1)c1ccc(N2CCCCC2)cc1)c1ccc(C(F)(F)F)[nH]c1=O` (centres unmarked) [Compound 9A, 2-oxo-N-(phenyl(4-(piperidin-1-yl)phenyl)methyl)-6-(trifluoromethyl)-1,2-dihydropyridine-3-carboxamide], the IC50 was found to be 1.2 µM.
With `O=C(NC(c1ccc(Br)cc1)c1ccc(Br)cc1)c1ccc(C(F)(F)F)[nH]c1=O` [Compound 10, N-(bis(4-bromophenyl)methyl)-2-oxo-6-(trifluoromethyl)-1,2-dihydropyridine-3-carboxamide], the 50% inhibitory concentration (IC50) amounted to 0.67 µM.
Consider `O=C(NC1c2ccccc2Sc2ccccc21)c1ccc(C(F)(F)F)[nH]c1=O` [Compound 10A, 2-oxo-N-(9H-thioxanthen-9-yl)-6-(trifluoromethyl)-1,2-dihydropyridine-3-carboxamide], for which the concentration for half-maximal inhibition (IC50) amounted to 1.46 µM.
On the same count and under the same terms, in the case of `O=C(NC(c1ccc(OC(F)(F)F)cc1)c1ccc(OC(F)(F)F)cc1)c1ccc(C(F)(F)F)[nH]c1=O` [Compound 11, N-(bis(4-(trifluoromethoxy)phenyl)methyl)-2-oxo-6-(trifluoromethyl)-1,2-dihydropyridine-3-carboxamide] it was 1.09 µM; in that of `O=C(NC1c2ccccc2S(=O)(=O)c2ccccc21)c1ccc(C(F)(F)F)[nH]c1=O` [Compound 11A, N-(10,10-dioxido-9H-thioxanthen-9-yl)-2-oxo-6-(trifluoromethyl)-1,2-dihydropyridine-3-carboxamide], 1.19 µM; in that of `Cc1ccc(C(NC(=O)c2cnc(C(F)(F)F)[nH]c2=O)c2ccc(C)cc2)cc1` [Compound 13A, N-(di-p-tolylmethyl)-6-oxo-2-(trifluoromethyl)-1,6-dihydropyrimidine-5-carboxamide], 1.31 µM.
For the molecule `O=C(NC1c2ccc(Cl)cc2-c2cc(Cl)ccc21)c1ccc(C(F)(F)F)[nH]c1=O` [Compound 14A, N-(3,6-dichloro-9H-fluoren-9-yl)-2-oxo-6-(trifluoromethyl)-1,2-dihydropyridine-3-carboxamide], the IC50 turned out to be 4.28 µM.
On the same count and under the same terms, in the case of `O=C(NC(c1ccccc1)c1ccc(O)c(F)c1)c1ccc(C(F)(F)F)[nH]c1=O` (centres unmarked) [Compound 16A, N-((3-fluoro-4-hydroxyphenyl)(phenyl)methyl)-2-oxo-6-(trifluoromethyl)-1,2-dihydropyridine-3-carboxamide] it was 3.64 µM; in that of `O=C(NC(c1ccccc1)c1ccccc1C(F)(F)F)c1ccc(C(F)(F)F)[nH]c1=O` (centres unmarked) [Compound 17A, 2-oxo-N-(phenyl(2-(trifluoromethyl)phenyl)methyl)-6-(trifluoromethyl)-1,2-dihydropyridine-3-carboxamide], 3.1 µM.
As to `Cc1ccc(C(NC(=O)c2cnc(C(F)(F)F)[nH]c2=O)c2ccccc2)cc1C` (centres unmarked) [Compound 18A, N-((3,4-dimethylphenyl)(phenyl)methyl)-6-oxo-2-(trifluoromethyl)-1,6-dihydropyrimidine-5-carboxamide], the IC50 was 2.62 µM.
Take `CC(NC(=O)c1ccc(C(F)(F)F)[nH]c1=O)(c1ccc(O)cc1)c1ccc(O)cc1` [Compound 21A, N-(1,1-bis(4-hydroxyphenyl)ethyl)-2-oxo-6-(trifluoromethyl)-1,2-dihydropyridine-3-carboxamide]: the IC50 is 1.85 µM.
With `CCC(NC(=O)c1ccc(C(F)(F)F)[nH]c1=O)c1ccc(Cl)cc1` (centres unmarked) [Compound 22A, N-(1-(4-chlorophenyl)propyl)-2-oxo-6-(trifluoromethyl)-1,2-dihydropyridine-3-carboxamide], the IC50 worked out at 2.96 µM.
Take `O=C(NC(c1ccc(O)cc1)c1ccc(O)cc1)c1ccc(C(F)(F)F)[nH]c1=O` [Compound 23, N-(bis(4-hydroxyphenyl)methyl)-2-oxo-6-(trifluoromethyl)-1,2-dihydropyridine-3-carboxamide]: the half-maximal inhibitory concentration (IC50) came out at 4.24 µM.
On to `O=C(NC(c1ccc(CC(F)(F)F)cc1)c1ccc(CC(F)(F)F)cc1)c1ccc(C(F)(F)F)[nH]c1=O` [Compound 23A, N-(bis(4-(2,2,2-trifluoroethyl)phenyl)methyl)-2-oxo-6-(trifluoromethyl)-1,2-dihydropyridine-3-carboxamide], for which the IC50 was determined as 0.99 µM.
Still for that read-out and setting: next, `C/C=C/c1ccc(C(NC(=O)c2ccc(C(F)(F)F)[nH]c2=O)c2ccccc2)cc1` (centres unmarked) [Compound 29, (E)-2-oxo-N-(phenyl(4-(prop-1-en-1-yl)phenyl)methyl)-6-(trifluoromethyl)-1,2-dihydropyridine-3-carboxamide]: 0.47 µM; `C=C(C)c1ccc(C(NC(=O)c2ccc(C(F)(F)F)[nH]c2=O)c2ccccc2)cc1` (centres unmarked) [Compound 30, 2-oxo-N-(phenyl(4-(prop-1-en-2-yl)phenyl)methyl)-6-(trifluoromethyl)-1,2-dihydropyridine-3-carboxamide]: 0.75 µM; `O=C(NC(c1ccccc1)c1ccc(C2=CCCC2)cc1)c1ccc(C(F)(F)F)[nH]c1=O` (centres unmarked) [Compound 31, N-((4-(cyclopent-1-en-1-yl)phenyl)(phenyl)methyl)-2-oxo-6-(trifluoromethyl)-1,2-dihydropyridine-3-carboxamide]: 0.46 µM.
In the case of `O=C(NC(c1ccccc1)c1ccc(C2=CCCCC2)cc1)c1ccc(C(F)(F)F)[nH]c1=O` (centres unmarked) [Compound 32, 2-oxo-N-(phenyl(2′,3′,4,5′-tetrahydro-[1,1′-biphenyl]-4-yl)methyl)-6-(trifluoromethyl)-1,2-dihydropyridine-3-carboxamide], the half-maximal inhibitory concentration (IC50) came to 0.4 µM.
In the case of `O=C(NC(c1ccccc1)c1ccc(C2=CCOCC2)cc1)c1ccc(C(F)(F)F)[nH]c1=O` (centres unmarked) [Compound 33, N-((4-(3,6-dihydro-2H-pyran-4-yl)phenyl)(phenyl)methyl)-2-oxo-6-(trifluoromethyl)-1,2-dihydropyridine-3-carboxamide], the IC50 was 0.82 µM.
With `O=C(NC(c1ccc(F)cc1)c1ccc(F)cc1)c1ccc(C(F)(F)F)[nH]c1=O` [Compound 34, N-(bis(4-fluorophenyl)methyl)-2-oxo-6-(trifluoromethyl)-1,2-dihydropyridine-3-carboxamide], the IC50 came to 1.63 µM.
For `O=C(NC(c1ccccc1)c1ccc(C2CCCC2)cc1)c1ccc(C(F)(F)F)[nH]c1=O` (centres unmarked) [Compound 38, N-((4-cyclopentylphenyl)(phenyl)methyl)-2-oxo-6-(trifluoromethyl)-1,2-dihydropyridine-3-carboxamide], the 50% inhibitory concentration (IC50) worked out at 0.45 µM.
Regarding `O=C(NC(c1ccccc1)c1ccc(C2CCCCC2)cc1)c1ccc(C(F)(F)F)[nH]c1=O` (centres unmarked) [Compound 39, N-((4-cyclohexylphenyl)(phenyl)methyl)-2-oxo-6-(trifluoromethyl)-1,2-dihydropyridine-3-carboxamide], the concentration for half-maximal inhibition (IC50) was 0.49 µM.
`O=C(NC1c2ccccc2CCc2ccccc21)c1ccc(C(F)(F)F)[nH]c1=O` [Compound 40, N-(10,11-dihydro-5H-dibenzo[a,d][7]annulen-5-yl)-2-oxo-6-(trifluoromethyl)-1,2-dihydropyridine-3-carboxamide]: the 50% inhibitory concentration (IC50) turned out to be 1.65 µM.
Take `CN(C)c1ccc(C(NC(=O)c2ccc(C(F)(F)F)[nH]c2=O)c2ccccc2)cc1` (centres unmarked) [Compound 41, N-((4-(dimethylamino)phenyl) (phenyl)methyl)-2-oxo-6-(trifluoromethyl)-1,2-dihydropyridine-3-carboxamide]: the IC50 was 1.29 µM.
Turning to `CCc1ccc2c(c1)-c1cc(CC)ccc1C2NC(=O)c1ccc(C(F)(F)F)[nH]c1=O` [Compound 42, N-(3,6-diethyl-9H-fluoren-9-yl)-2-oxo-6-(trifluoromethyl)-1,2-dihydropyridine-3-carboxamide], the 50% inhibitory concentration (IC50) was found to be 1.3 µM.
On the same count and under the same terms, in the case of `O=C(NC1c2ccc(O)cc2-c2cc(O)ccc21)c1ccc(C(F)(F)F)[nH]c1=O` [Compound 45, N-(3,6-dihydroxy-9H-fluoren-9-yl)-2-oxo-6-(trifluoromethyl)-1,2-dihydropyridine-3-carboxamide] it was 1.75 µM.
For `O=C(NC1c2ccc(OC(F)F)cc2-c2cc(OC(F)F)ccc21)c1ccc(C(F)(F)F)[nH]c1=O` [Compound 47, N-(3,6-bis(difluoromethoxy)-9H-fluoren-9-yl)-2-oxo-6-(trifluoromethyl)-1,2-dihydropyridine-3-carboxamide], the half-maximal inhibitory concentration (IC50) was determined as 1.83 µM.

Still in this experiment, the particulars now being: 150 nM HSD17B13; read-out: Inhibition of 150 nM of HSD17B13 IC50.
For `COc1cccc(C(NC(=O)c2ccc(C(F)(F)F)[nH]c2=O)c2ccccc2)c1` (centres unmarked) [Compound 4, N-((3-methoxyphenyl)(phenyl)methyl)-2-oxo-6-(trifluoromethyl)-1,2-dihydropyridine-3-carboxamide], the IC50 was 4.7 µM.
For `O=C(NC(c1ccccc1)c1cccc(Cl)c1)c1ccc(C(F)(F)F)[nH]c1=O` (centres unmarked) [Compound 6, N-((3-chlorophenyl)(phenyl)methyl)-2-oxo-6-(trifluoromethyl)-1,2-dihydropyridine-3-carboxamide], the concentration for half-maximal inhibition (IC50) turned out to be 4.52 µM.
Take `COc1ccccc1C(NC(=O)c1ccc(C(F)(F)F)[nH]c1=O)c1ccccc1` (centres unmarked) [Compound 8, N-((2-methoxyphenyl)(phenyl)methyl)-2-oxo-6-(trifluoromethyl)-1,2-dihydropyridine-3-carboxamide]: the 50% inhibitory concentration (IC50) came out at 3.23 µM.
For `Cc1cccc(C(NC(=O)c2ccc(C(F)(F)F)[nH]c2=O)c2ccccc2)c1` (centres unmarked) [Compound 20, N-(phenyl(m-tolyl)methyl)-2-oxo-6-(trifluoromethyl)-1,2-dihydropyridine-3-carboxamide], the IC50 worked out at 2.11 µM.
